Data set [1] relates to Mouse, rat cortical or hippocampal primary neurons. The experiment in a line: In vitro drug candidate screening for neurotoxicity, ELISA of cell lysates. It counts as cell-based. The following applies: primary neurons 21 DIV, glutamate 30 min, other agents 24 hours. The procedure:
Mouse, rat cortical or hippocampal primary neurons are cultured for 21 DIV, and the dose dependent responses of drugs are investigated. Cultured cells are exposed to various concentrations of: Glutamate (0.01 to 1000 μM) in 10 μM glycine both in HBSS; B) 0.01 to 100 μM Kainate in culture media; C) H2O2 (0.001 to 1000 μM) in culture media; C) Zinc (0.01 to 1000 μM) in culture media; D) U0126 (0.001 to 100 μM) in culture media; and E) and equal volume of culture media as a control. Glutamate treatment is performed for 30 minutes after which the cells are washed and the HBSS is replaced with culture media and analyzed. The remaining candidates are treated for 24 hours and analyzed. The levels of intracellular UCH-L1 and SBDP 145 are analyzed following cell lysis and screening of the lysates by ELISA using anti-UCH-L1 and SBDP 145 specific antibodies. The levels of UCH-L1 are increased following exposure particularly to Glutamate and H2O2.
(In general: ELISA stands for enzyme-linked immunosorbent assay.)

In data set [2] the test system is Male Sprague-Dawley rats. The data set is classed as in vivo, rat. The following applies: 9 mg/kg s.c., compared with control group. The procedure:
(§1) Male Sprague-Dawley rats (Harlan: Indianapolis, Ind.) with weight from 180 to 200 g are used. The rats are allowed free access to a normal laboratory diet and chlorinated potable water. All rats are acclimated for at least one week to the housing facilities and diet before being used in the study. The controls in the animal room are set to maintain a temperature of 20° C. to 24° C. and 30% to 70% relative humidity. Rats are maintained on a twelve-hour light/dark cycle.
(§2) Animals received single subcutaneous injections of Kaininc acid (Sigma, Chemical, St. Louis, Mo., USA) at dose 9 mg/kg and sacrificed at 24 h after injection. Separate control/treatment groups of animals are used. Brain tissues and CSF sample are collected at 6, 24, 48 and 72 h time points after injection.
(§3) At the appropriate time points, animals are anesthetized with 4% isoflurane in oxygen as a carrier gas for 4 minutes, followed by maintenance anesthesia of 2-3% isoflurane in the same carrier gas. The rats are placed in a stereotaxic instrument and about 100 μl of CSF from the cisterna magna of each animal is collected transcutaneously through 25 gauge needle attached to polyethylene tubing. CSF samples are frozen on dry ice immediately after collection. After CSF collection animals are removed from the stereotaxic instrument and anesthesia nose cone and the animal, still under anesthesia, is immediately sacrificed by decapitation. Cortex, hippocampus, cerebellum and striatum will be rapidly dissected out, rinsed in cold PBS and snap frozen in liquid nitrogen. To obtain brain tissue for IHC animals are euthanized with lethal dose of pentobarbital, transcardically perfused with 4% paraformaldehyde and whole brains are removed, processed and embedded in paraffin.
Serum and CSF sample concentrations of UCH-L1 are measured using a UCH-L1 sandwich enzyme-linked immunosorbent assay (ELISA) version lb modified from a protocol previously reported (Papa L. et al., 2010; Liu M. et al., 2009). Both mouse monoclonal antibody (capture antibody) and rabbit polyclonal antibody (detection antibody) are made in-house against recombinant human UCH-L1 full length protein and partial protein respectively). Both are affinity purified using target-protein-based affinity column. Their specificity to only target protein (UCH-L1) is confirmed by immunoblotting. Reaction wells are coated with capture antibody (5 μg/mL purified mouse monoclonal anti-human UCHL1) in 0.05 M sodium bicarbonate, pH 9.6 and incubated overnight at 4° C. […] Finally, the wells are developed with substrate solution: Ultra-TMB ELISA 100 μL/well (Pierce #34028) with incubation for 10 min, plate read at 450 nm with a 96-well spectrophotometer (Molecular Device Spectramax 190).
Serum and CSF sample concentrations of GFAP are measured using a GFAP sandwich enzyme-linked immunosorbent assay (ELISA) version 2a. […]

A further data set relates to rats. Nature of the data set: Kainic acid neurotoxicity rat model, biomarkers in blood plasma. It counts as in vivo. The settings on record: process of Example 5 with blood plasma in lieu of CSF; as a function of time. The text has this:
The process of Example 5 is repeated with blood plasma as the subject sample source the rats in lieu of CSF.

Data set [3] deals with Male Sprague-Dawley rats. Nature of the data set: Kainic acid neurotoxicity rat model, immunohistochemistry of brain sections. The data set is classed as in vivo. The procedure:
as §1, §2, §3
IHC is performed on paraffin-embedded 6 μm brain sections. Slides are deparaffinized, incubated for 10 min at 95° C. in Trilogy solution (Cell Marque, Hot Springs, Ak.) for antigen retrieval, blocked for endogenous peroxides and incubated with 1 Abs (GFAP, SBDP145, SBDP150, SBDP120 and Casp 3) overnight at 4° C. followed by treatments with secondary Abs (LSAB+, # K0679, Dako). The staining is visualized with 3,3′-diaminobenzidine (DAB) (Dako, Carpinteria, Calif.) for brown color development. Sections are counterstained with Hematoxylin (Dako, Carpinteria, Calif.). Negative controls are performed by treatment only with species-matched secondary antibodies.

Data set [4] has as its system Male Sprague-Dawley rats. The experiment in a line: Kainic acid neurotoxicity rat model, Western blot of brain tissue for αII-spectrin and SBDPs. The data set is classed as in vivo. The settings on record: 9 mg/kg s.c.; hippocampus and to a lesser extent cortex. As to the method: as §1, §2, §3
After SDS-gel electrophoresis in Tris-glycine buffer system and electrotransfer, blotting membranes are blocked for 1 hour at ambient temperature in 5% non-fat milk in Tris-buffered saline (TBS) and then in TBS containing 0.05% […] (TBST), then incubated in primary monoclonal anti-αII-spectrin antibodies (Biomol, Plymouth Meeting, Pa., USA) diluted ˜1:3000 (3.5 ul/10 ml) in PBS as recommended by the manufacturer at 4° C. overnight. […] Molecular weight of intact αll-spectrin protein and αll-spectrin breakdown products (SBDPs) are assessed by running alongside rainbow colored molecular weight standards (Amersham, Cat # RPN800V). Semi-quantitative evaluation of levels of αll-spectrin and of its breakdown products SBDP150 and SBDP145 and SBDP120 is performed using computer-assisted high-resolution flatbed scanner Epson XL3500 and densitometric image analysis with Image J software (NIH). […]
For orientation: Immunoblotting shows a protein as a band on a membrane.

Data set [5] has as its system Female Sprague-Dawley rats. Nature of the data set: Acute in vivo drug candidate screening for neurotoxicity, biofluid biomarkers by sandwich ELISA or Western blot. The settings on record: rat, i.p., 30, 60, 90, 120 minutes following dosing, methamphetamine 40 mg/kg. As to the method:
Anesthesia is performed with intraperitoneal injections of pentobarbital (50 mg/kg). The test substance can also be administered in a single dose by gavage using a stomach tube or a suitable intubation cannula. Animals are fasted prior to dosing. A total of four to eight animals of are used for each dose level investigated.
30, 60, 90, and 120 minutes following dosing, the rats are sacrificed by decapitation and blood is obtained by cardiac puncture. The levels of biofluid UCH-L1 and SBDP 150 and GFAP are analyzed by sandwich ELISA or Western blot by using UCH-L1 and SBDP 150 and GFAP specific antibodies.

Where [6] appears, read: 9 mg/kg s.c., hippocampus and cortex, vs control group.

Each structure is given as a SMILES string.

With `N[C@@H](CCC(=O)O)C(=O)O` [Glutamate], the “levels of intracellular UCH-L1” value in data set [1] is on record as “increased”.

For the molecule `OO` [H2O2], the “levels of intracellular UCH-L1” value in data set [1] is given as “increased”.

As to `C=C(C)[C@H]1CN[C@H](C(=O)O)[C@H]1CC(=O)O` [KA, Kainic acid], in the data set with Male Sprague-Dawley rats [2], the “SBDP120 in CSF (ELISA)” value was “buildup”, the “SBDP145 in CSF (ELISA)” value was “buildup”, the “SBDP150 in CSF (ELISA)” value was “buildup” and the “expression of GFAP in CSF (ELISA)” value was “increase”. Also, in the data set on Male Sprague-Dawley rats [2], the “expression of UCHL 1 in CSF (ELISA)” value is given as “increase”. In addition, in the data set with rats, the “Biomarker levels in blood plasma (UCHL 1, GFAP, NF-H)” value is given as “elevated”. In addition, in the data set with Male Sprague-Dawley rats [3] (setting [6]), the “level of GFAP (IHC)” value was “increased level”, the “level of SBDP120 (IHC)” value is reported as “increased level”, the “level of SBDP145 (IHC)” value is given as “increased level” and the “level of SBDP150 (IHC)” value is on record as “increased level”. Besides, in the data set on Male Sprague-Dawley rats [3] (hippocampus of KA treated rats, FIG. 5), the “level of αII-spectrin breakdown products (histology images)” value is “increased level”. The “level of activated Caspase-3 (histology images)” value in the data set on Male Sprague-Dawley rats [3] (hippocampus of KA treated rats, FIG. 7) is “increased level”. In the data set with Male Sprague-Dawley rats [4], the “SBDP120 breakdown fragment produced by caspase-3 (Western blot)” value is reported as “appearance”, the “SBDP145 breakdown fragment produced by calpain (Western blot)” value is on record as “appearance”, the “SBDP150 breakdown fragment produced by calpain (Western blot)” value is listed as “appearance” and the “intact αII-spectrin level (Western blot)” value is “decrease”.

In the case of `CN[C@@H](C)Cc1ccccc1` [methamphetamine], the “biofluid GFAP level relative to control animals” value in data set [5] is on record as “increased”. In data set [5] (cisplatin 10 mg/kg), the “biofluid SBDP 150 level relative to control animals” value is reported as “increased” and the “biofluid UCH-L1 level relative to control animals” value is “increased”.
